Experimental data reported in ChEMBL document CHEMBL5137115, “Insights into the Metabolomic Capacity of Podaxis and Isolation of Podaxisterols A-D, Ergosterol Derivatives Carrying Nitrosyl Cyanide-Derived Modifications” (J Nat Prod, 2022).
Calls of active or inactive are those of the source.

Tests used:
Format in all cases: functional, organism-based
[1] = tested on: Mycolicibacterium vaccae; test: Antimicrobial activity against Mycobacterium vaccae 10670 assessed as inhibition zone at 0.5 mg/ml by […]
[2] = tested on: Bacillus subtilis; test: Antimicrobial activity against Bacillus subtilis 6633 assessed as inhibition zone at 0.5 mg/ml by […]
[3] = tested on: Staphylococcus aureus; test: Antimicrobial activity against Staphylococcus aureus 134/94 assessed as inhibition zone at 0.5 mg/ml by […]
[4] = tested on: Enterococcus faecalis; test: Antimicrobial activity against Enterococcus faecalis 1528 assessed as inhibition zone at 0.5 mg/ml by […]
[5] = tested on: Staphylococcus aureus; test: Antimicrobial activity against Staphylococcus aureus SG511 assessed as inhibition zone at 0.5 mg/ml by […]

Measured: Activity

CC(C)[C@@H](C)/C=C/[C@@H](C)[C@H]1CC[C@H]2C3=CC=C4C[C@@H](O)CC[C@]4(C)[C@H]3CC[C@]12C
active: [1] | [2] | [3] | [4] | [5]
